48 compounds from ChEMBL document CHEMBL4418308, “cGAS ANTAGONIST COMPOUNDS” (2017) can be followed below.

Where only a bound is given, the exact number is not on record here.

The target of assay [1] is T1, Cyclic GMP-AMP synthase (Homo sapiens, UniProt Q8N884). In words: Inhibition of CGAS in human THP1 cells transfected with interferon stimulatory DNA and measured after 16 hrs by Gaussia luciferase reporter gene assay. It counts as cell-based.
The target in assay [2] is T1, Cyclic GMP-AMP synthase. In words: Inhibition of CGAS in human THP1 cells transfected with mock Sendai virus and measured after 16 hrs by Gaussia luciferase reporter gene assay. It counts as cell-based. In general terms: Reporter assays use an easily measured gene product as a stand-in for the process of interest.
Assay [3] deals with T1, Cyclic GMP-AMP synthase. Description: Inhibition of recombinant His6-SUMO tagged human CGAS expressed in Escherichia coli BL21/pLys cells incubated for 20 mins by Kinase Glo chemiluminescence assay.

T1 sequence (Q8N884 whole entry): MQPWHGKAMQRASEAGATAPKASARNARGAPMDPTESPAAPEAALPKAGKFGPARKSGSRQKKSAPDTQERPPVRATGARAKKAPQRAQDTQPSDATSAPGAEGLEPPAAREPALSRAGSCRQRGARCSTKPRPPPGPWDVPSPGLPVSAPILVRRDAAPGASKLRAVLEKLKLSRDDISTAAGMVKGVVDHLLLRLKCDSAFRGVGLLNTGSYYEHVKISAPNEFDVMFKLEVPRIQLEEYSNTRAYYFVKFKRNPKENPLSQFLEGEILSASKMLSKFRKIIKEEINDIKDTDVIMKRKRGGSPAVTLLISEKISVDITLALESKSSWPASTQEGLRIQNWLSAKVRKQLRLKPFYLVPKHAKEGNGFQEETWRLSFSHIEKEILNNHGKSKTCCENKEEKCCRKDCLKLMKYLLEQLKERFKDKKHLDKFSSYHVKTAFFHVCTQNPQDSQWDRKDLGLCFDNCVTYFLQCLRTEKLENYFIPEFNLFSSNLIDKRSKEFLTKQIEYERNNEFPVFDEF

A word on the IC50: it is the point on the concentration scale where inhibition reaches its midpoint. `CN1C(=O)S/C(=C\c2cc(OCc3cnc([S+](C)[O-])nc3)c(O)cc2Br)C1=O` (centres undefined): the figures for the IC50 in assay [1], in assay [2] and in assay [3] were 2500 to 10000 nM, ≥ 10000 nM and ≤ 500 nM, respectively.

Take `CCC(Oc1cc(/C=C2\SC(=O)N(C)C2=O)c(Br)c(F)c1O)c1cnc(N)nc1` (centres undefined): the IC50 in assay [1] was 2500 to 10000 nM; in assay [2], ≥ 10000 nM; in assay [3], ≤ 500 nM.

Take `Cc1nc(N)ncc1COc1cc(/C=C2\SC(=O)N(C)C2=O)c(Br)c(F)c1O`: the results for the IC50 in assay [1], in assay [2] and in assay [3] were ≤ 2500 nM, ≥ 10000 nM and ≤ 500 nM, respectively.

On to `CN1C(=O)S/C(=C\c2cc(OCc3cnc(NCc4ccccn4)nc3)c(O)cc2Br)C1=O`, for which the IC50 in assay [1] is 2500 to 10000 nM; in assay [2] it was ≥ 10000 nM; in assay [3] it was ≤ 500 nM.

Consider `CN1C(=O)S/C(=C\c2cc(OCc3cnc(N)nc3)c(O)c(F)c2Br)C1=O`, for which the IC50 is ≤ 2500 nM in assay [1], ≥ 10000 nM in assay [2] and ≤ 500 nM in assay [3].

Regarding `CC1C(=O)S/C(=C\c2cc(OC(C)c3cnc(Cl)nc3)c(O)c(F)c2Br)C1=O` (centres undefined), the figures for the IC50 in assay [1], in assay [2] and in assay [3] were 2500 to 10000 nM, 2500 to 10000 nM and ≤ 500 nM, respectively.

Take `CC(Oc1cc(/C=C2\Sc3ncccc3C2=O)c(Br)cc1O)c1cnc(N)nc1` (centres undefined): the IC50 in assay [1] is ≤ 2500 nM; in assay [2], ≥ 10000 nM; in assay [3] it was ≤ 500 nM.

As to `CN1C(=O)S/C(=C\c2cc(OCc3cnc(N4CCNCC4)nc3)c(O)cc2Br)C1=O`, the IC50 in assay [1] is 2500 to 10000 nM; in assay [2], ≥ 10000 nM; in assay [3], ≤ 500 nM.

For `O=C1/C(=C/c2cc(OCc3cncnc3)c(O)cc2Br)Sc2ncccc21`, the IC50 in assay [1] was 2500 to 10000 nM; in assay [2], ≥ 10000 nM; in assay [3], ≤ 500 nM.

For `CN1C(=O)S/C(=C\c2cc(OCc3ccc(N)nc3)c(O)cc2Br)C1=O`, the figures for the IC50 in assay [1], in assay [2] and in assay [3] were 2500 to 10000 nM, 2500 to 10000 nM and ≥ 10000 nM, respectively.

On to `CN1C(=O)S/C(=C\c2cc(OCc3cncnc3)c(O)cc2Br)C1=O`, for which the values for the IC50 in assay [1], in assay [2] and in assay [3] were ≤ 2500 nM, ≥ 10000 nM and ≤ 500 nM, respectively.

As to `COc1cc(/C=C2\SC(=O)N(C)C2=O)c(Br)c(F)c1O`, the results for the IC50 in assay [1], in assay [2] and in assay [3] were 2500 to 10000 nM, ≥ 10000 nM and ≤ 500 nM, respectively.

As for `CN1C(=O)S/C(=C\c2cc(OCc3cn[nH]c3)c(O)cc2Br)C1=O`, the IC50 is ≤ 2500 nM in assay [1], ≥ 10000 nM in assay [2] and ≤ 500 nM in assay [3].

Regarding `COc1cc(/C=C2\Sc3ncccc3C2=O)c(Br)c(F)c1O`, the IC50 in assay [1] was 2500 to 10000 nM; in assay [2], ≥ 10000 nM; in assay [3] it was ≤ 500 nM.

Turning to `COCCNc1ncc(COc2cc(/C=C3\SC(=O)N(C)C3=O)c(Br)c(F)c2O)cn1`, the IC50 in assay [1] was 2500 to 10000 nM; in assay [2], ≥ 10000 nM; in assay [3] it was ≤ 500 nM.

Consider `CN1C(=O)S/C(=C\c2cc(OCc3cnc(NCCO)nc3)c(O)c(F)c2Br)C1=O`, for which the IC50 was ≤ 2500 nM in assay [1], ≥ 10000 nM in assay [2] and ≤ 500 nM in assay [3].

With `Cc1ncc(COc2cc(/C=C3\Sc4ncccc4C3=O)c(Br)c(F)c2O)cn1`, the values for the IC50 in assay [1], in assay [2] and in assay [3] were ≤ 2500 nM, ≥ 10000 nM and ≤ 500 nM, respectively.

`CN1C(=O)S/C(=C\c2cc(OCc3cnc(NC4CC4)nc3)c(O)cc2Br)C1=O`: the IC50 in assay [1] is ≤ 2500 nM; in assay [2] it was ≥ 10000 nM; in assay [3] it was 500 to 10000 nM.

For `CN1C(=O)S/C(=C\c2cc(OCc3cnc(NCc4ccncc4)nc3)c(O)cc2Br)C1=O`, the IC50 in assay [1] was 2500 to 10000 nM; in assay [2], ≥ 10000 nM; in assay [3] it was ≤ 500 nM.

With `O=C1/C(=C/c2cc(OCc3cnc(NCc4cccnc4)nc3)c(O)c(F)c2Br)Sc2ncccc21`, the IC50 in assay [1] was 2500 to 10000 nM; in assay [2], ≥ 10000 nM; in assay [3], ≤ 500 nM.

Take `CN1C(=O)S/C(=C\c2cc(OCc3cnc4ccccc4c3)c(O)cc2Br)C1=O`: the IC50 in assay [1] is 2500 to 10000 nM; in assay [2], ≥ 10000 nM; in assay [3], ≥ 10000 nM.

For the compound `[2H]C([2H])(Oc1cc(/C=C2\SC(=O)N(C)C2=O)c(Br)cc1O)c1cnc(N)nc1`, the IC50 in assay [1] was ≤ 2500 nM; in assay [2] it was ≥ 10000 nM; in assay [3] it was ≤ 500 nM.

As for `CN1C(=O)S/C(=C\c2cc(OCc3cnc(N)nc3C3CC3)c(O)cc2Br)C1=O`, the IC50 was 2500 to 10000 nM in assay [1], ≥ 10000 nM in assay [2] and ≤ 500 nM in assay [3].

For `CN1C(=O)S/C(=C\c2cc(OC(F)(F)F)c(O)cc2Br)C1=O`, the figures for the IC50 in assay [1], in assay [2] and in assay [3] were ≤ 2500 nM, 2500 to 10000 nM and ≥ 10000 nM, respectively.

For the compound `CNc1ncc(COc2cc(/C=C3\Sc4ncccc4C3=O)c(Br)c(F)c2O)cn1`, the IC50 in assay [1] was 2500 to 10000 nM; in assay [2], ≥ 10000 nM; in assay [3] it was ≤ 500 nM.

As to `CN1C(=O)S/C(=C\c2cc(OCc3cnc[nH]3)c(O)cc2Br)C1=O`, the IC50 in assay [1] is 2500 to 10000 nM; in assay [2], ≥ 10000 nM; in assay [3], ≥ 10000 nM.

Consider `CN1C(=O)S/C(=C\c2cc(OCCc3cnc(N)nc3)c(O)c(F)c2Br)C1=O`, for which the IC50 was ≤ 2500 nM in assay [1], ≥ 10000 nM in assay [2] and ≤ 500 nM in assay [3].

Consider `C[S+]([O-])c1ncc(COc2cc(/C=C3\Sc4ncccc4C3=O)c(Br)c(F)c2O)cn1` (centres undefined), for which the IC50 is 2500 to 10000 nM in assay [1], ≥ 10000 nM in assay [2] and 500 to 10000 nM in assay [3].

With `CC(Oc1cc(/C=C2\SC(=O)N(C)C2=O)c(Br)cc1O)c1cncnc1N` (centres undefined), the IC50 was 2500 to 10000 nM in assay [1], ≥ 10000 nM in assay [2] and ≤ 500 nM in assay [3].

For the compound `CNc1ncc(COc2cc(/C=C3\Sc4ncccc4C3=O)c(Br)cc2O)cn1`, the IC50 was 2500 to 10000 nM in assay [1], ≥ 10000 nM in assay [2] and ≤ 500 nM in assay [3].

As to `COc1cc(/C=C2\SC(=O)N(C)C2=O)c(I)cc1O`, the IC50 in assay [1] is 2500 to 10000 nM; in assay [2] it was ≥ 10000 nM; in assay [3], ≤ 500 nM.

For `CC(Oc1cc(/C=C2\SC(=O)N(C)C2=O)c(Br)c(F)c1O)C(O)c1cnc(N)nc1` (centres undefined), the IC50 in assay [1] is ≥ 10000 nM; in assay [2] it was ≥ 10000 nM; in assay [3], ≤ 500 nM.

Turning to `CNc1ncc(COc2cc(/C=C3\SC(=O)N(C)C3=O)c(Br)cc2O)cn1`, the results for the IC50 in assay [1], in assay [2] and in assay [3] were ≤ 2500 nM, ≥ 10000 nM and ≤ 500 nM, respectively.

Take `CN1C(=O)S/C(=C\c2cc(Oc3ccc(N)nc3)c(O)cc2Br)C1=O`: the values for the IC50 in assay [1], in assay [2] and in assay [3] were 2500 to 10000 nM, ≥ 10000 nM and ≥ 10000 nM, respectively.

Take `Nc1ncc(COc2cc(/C=C3\Sc4ncccc4C3=O)c(Br)cc2O)cn1`: the IC50 was ≤ 2500 nM in assay [1], ≥ 10000 nM in assay [2] and ≤ 500 nM in assay [3].

For `O=C1/C(=C/c2cc(CC(F)(F)F)c(O)cc2Br)Sc2ncccc21`, the IC50 is 2500 to 10000 nM in assay [1], ≥ 10000 nM in assay [2] and ≤ 500 nM in assay [3].

In the case of `CN1C(=O)S/C(=C\c2cc(O/C=C/c3cnc(N)nc3)c(O)c(F)c2Br)C1=O`, the figures for the half-maximal inhibitory concentration (IC50) in assay [1], in assay [2] and in assay [3] were ≤ 2500 nM, ≥ 10000 nM and ≤ 500 nM, respectively.

For `Nc1ncncc1COc1cc(/C=C2\Sc3ncccc3C2=O)c(Br)cc1O`, the IC50 in assay [1] is 2500 to 10000 nM; in assay [2], ≥ 10000 nM; in assay [3] it was ≤ 500 nM.

With `CC(C)C(=O)N1CCC(COc2cc(/C=C3\SC(=O)N(C)C3=O)c(Br)cc2O)CC1`, the figures for the IC50 in assay [1], in assay [2] and in assay [3] were 2500 to 10000 nM, ≥ 10000 nM and ≥ 10000 nM, respectively.

On to `Cc1nc(N)ncc1COc1cc(/C=C2\SC(=O)N(C)C2=O)c(Br)cc1O`, for which the IC50 in assay [1] was ≤ 2500 nM; in assay [2], ≥ 10000 nM; in assay [3], ≤ 500 nM.

Turning to `CN1C(=O)S/C(=C\c2cc(OCc3cnc(NCc4cccnc4)nc3)c(O)cc2Br)C1=O`, the figures for the IC50 in assay [1], in assay [2] and in assay [3] were 2500 to 10000 nM, ≥ 10000 nM and ≤ 500 nM, respectively.

As to `CN1C(=O)S/C(=C\c2cc(OCc3cncnc3N)c(O)cc2Br)C1=O`, the results for the IC50 in assay [1], in assay [2] and in assay [3] were ≤ 2500 nM, ≥ 10000 nM and ≤ 500 nM, respectively.

Turning to `CN1C(=O)S/C(=C\c2cc(OCc3cnc(Cl)nc3)c(O)cc2Br)C1=O`, the IC50 in assay [1] was 2500 to 10000 nM; in assay [2], ≥ 10000 nM; in assay [3], ≤ 500 nM.

As to `CN1C(=O)S/C(=C\c2cc(OCC3CCCCC3)c(O)cc2Br)C1=O`, the IC50 in assay [1] is 2500 to 10000 nM; in assay [2], 2500 to 10000 nM; in assay [3], ≥ 10000 nM.

Consider `CN1C(=O)S/C(=C\c2cc(OCc3cnc(NN)nc3)c(O)cc2Br)C1=O`, for which the IC50 was ≤ 2500 nM in assay [1], ≥ 10000 nM in assay [2] and ≤ 500 nM in assay [3].

For `O=C1/C(=C/c2cc(OCc3cnc(NCc4ccncc4)nc3)c(O)cc2Br)Sc2ncccc21`, the IC50 in assay [1] was ≤ 2500 nM; in assay [2], ≥ 10000 nM; in assay [3] it was ≤ 500 nM.

For `O=C1/C(=C/c2cc(OC(F)(F)F)c(O)cc2Br)Sc2ncccc21`, the IC50 in assay [1] is 2500 to 10000 nM; in assay [2], ≥ 10000 nM; in assay [3], 500 to 10000 nM.

Turning to `O=C1/C(=C/c2cc(OCc3cnc(NCCO)nc3)c(O)cc2Br)Sc2ncccc21`, the IC50 is ≤ 2500 nM in assay [1], ≥ 10000 nM in assay [2] and ≤ 500 nM in assay [3].
